In publication PMC11714206, “Massively Parallel Screening of Toll/Interleukin‐1 Receptor (TIR)‐Derived Peptides Reveals Multiple Toll‐Like Receptors (TLRs)‐Targeting Immunomodulatory Peptides” (Advanced Science, 2024):
Values belong to the sequence of their own block, whether it stands above or below them.

Target: T1, MAL^TIR (Homo sapiens, UniProt P58753)
T1 construct: MAL (residues 79–221); 6xHis; made in house; host or cells: E. coli BL21 (DE3)
Experiment: T‐Surf phage library (P8 and P3) selection against MAL^TIR, four rounds, NGS read counts
Format: binding
Details: for Population: 4th round of selection against MAL TIR, share of NGS reads; for P3_MAL Rank (after) / P3_MAL Rank (before): P3 library; for P8_MAL Rank (after) / P8_MAL Rank (before): P8 library
Experimental: T‐Surf libraries were screened against the immobilized TIR domains of two major human TLR adaptor proteins, MAL^TIR and MyD88^TIR, allowing cross‐species selection of TIR‐binding motifs with 190 946 TIR‐derived peptides in a single binding assay (Scheme 1). Enriched phage pools from the fourth round of selection were analyzed using NGS after barcoding the peptide‐coding regions of the phage pools.
Phage display screening was performed by coating two wells of a 96‐well plate (Maxisorp, Thermo Fisher Scientific) with 100 µL of 5 µg mL^−1 TIR domains overnight; then, the coated wells were blocked with 200 µL of blocking buffer (0.2% BSA in PBS) and set aside for 1 h at 4 °C with gentle shaking. Next, 100 µL of the phage library was added to the wells and incubated for 1 h at room temperature (RT; 20 – 22 °C) with gentle shaking. The plate was washed four times with PBS containing 0.5% Tween‐20; the bound phages were eluted by adding 100 µL of 100 mM HCl to each well. The elute was neutralized with 10 µL of 1.0 M Tris‐HCl (pH 11.0). E. coli TG1 cells were grown to the log phase (A600 = ≈0.6), and 1 mL of the culture was incubated with 100 µL of the eluted phages for 30 min at 37 °C, with shaking at 200 rpm. Next, 1 µL of M13KO7 helper phages was added, followed by incubation for 45 min at 37 °C, with shaking. Subsequently, the cells were transferred to 25 mL of 2× yeast extract tryptone/carbenicillin/kanamycin medium and incubated overnight at 37 °C with shaking at 200 rpm. The amplified phages were precipitated with 20% PEG‐8000/2.5 M NaCl to be used for the next round of selection.
The naïve T‐Surf libraries in P8 and P3 and the enriched phage pools after four rounds were barcoded for NGS as previously described.^[ [59] ^] Briefly, 5 µL of the phage pool was used as a template for 20 cycles of a 50 µL PCR reaction using […] each of forward and reverse barcoded primers and PrimeSTAR Max DNA Polymerase. The PCR products were purified using Expin Gel SV (GeneAll). The NGS samples were quantified using qPCR, following the qPCR Quantification Protocol Guide (KAPA Library Quantification kits for Illumina Sequencing Platform), and qualified using the TapeStation High Sensitivity D1000 ScreenTape (Agilent Technologies). The indexed libraries were further sequenced by Macrogen (Seoul, Republic of Korea) using the NovaSeq platform (Illumina) with 100 bp paired‐end reads. The reads were demultiplexed by barcodes and filtered for an average Phred quality score of at least 30, followed by trimming the flanking consensus sequences using Cutadapt (version 2.3). Peptide sequence populations were analyzed according to the read counts.

[1] = P8_MAL pool: P8 T-Surf phage library
[2] = P8_MAL: rank by count after grouping
[3] = P8_MAL: rank by count before grouping
[4] = 4R selection against MAL, rank after grouping
[5] = 4R selection against MAL, rank before grouping
[6] = selection against MAL, rank after grouping
[7] = selection against MAL, rank before grouping
[8] = selection against MAL TIR, rank by count after grouping
[9] = selection against MAL TIR, rank by count before grouping
[10] = selection against MAL, rank by count after grouping
[11] = selection against MAL, rank by count before grouping
[12] = P3_MAL: rank by count after grouping
[13] = P3_MAL: rank by count before grouping

T1 sequence (P58753 79-221): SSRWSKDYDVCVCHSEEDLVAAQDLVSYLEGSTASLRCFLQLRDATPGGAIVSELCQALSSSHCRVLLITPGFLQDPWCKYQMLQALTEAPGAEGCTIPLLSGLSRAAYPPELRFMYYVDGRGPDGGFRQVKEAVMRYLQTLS

Population [1]: 0.00371%
Sequence: RNFVAYLFRALANKGI

Population [1]: 0.0034%
Sequence: LFFWESLKQLLRSAGR

Rank (after) [2]: 152
Rank (before) [3]: 1193
Sequence: WFYERLVSLLMRDTKV

P3_MAL Rank (after) [4]: 589
P3_MAL Rank (before) [5]: 1776
Sequence: GSIKWRDQHTVHPQSS

P3_MAL Rank (after) [6]: 498
P3_MAL Rank (before) [7]: 2380
Sequence: RGFLSHLRHHLPAKDQ

Rank (after) [2]: 165
Rank (before) [3]: 2449
Sequence: SEFILQIILWMNPKIV

P8_MAL Rank (after) [8]: 232
P8_MAL Rank (before) [9]: 2146
Sequence: LFLWESLKHLLRSDGR

P8_MAL Rank (after) [10]: 695
P8_MAL Rank (before) [11]: 2330
Sequence: PFLVHQYNEALQADSH

Rank (after) [2]: 411
Rank (before) [3]: 1115
Sequence: WFFEPLVILIPRDTKV

P8_MAL Rank (after) [6]: 506
P8_MAL Rank (before) [7]: 2428
Sequence: HLFCIQLKSILGETSF

P3_MAL Rank (after) [10]: 760
P3_MAL Rank (before) [11]: 1661
Sequence: VEPTQVRKQRCGGKC

Rank (after) [12]: 185
Rank (before) [13]: 2196
Sequence: LNWGDPYFWRKLRYAM

P3_MAL Rank (after) [10]: 734
P3_MAL Rank (before) [11]: 3683
Sequence: KMQKWKDALYEAANPT

Population [1]: 0.00278%
Sequence: YFLHFLLFSRLETEYI

P3_MAL Rank (after) [10]: 680
P3_MAL Rank (before) [11]: 3140
Sequence: SSFREGLWRLLGLIKK

Rank (after) [2]: 143
Rank (before) [3]: 1546
Sequence: YLKWGYPWFWIVCVL

Rank (after) [2]: 393
Rank (before) [3]: 2595
Sequence: TFLGHLYNMLIQAGIH

Rank (after) [12]: 187
Rank (before) [13]: 907
Sequence: RLLKWGYPWFWDRLRFA

P8_MAL Rank (after) [4]: 618
P8_MAL Rank (before) [5]: 2426
Sequence: HFYWILLKSILGETRL

Rank (after) [12]: 392
Rank (before) [13]: 2181
Sequence: LSVESWRQALEKAGQL

P8_MAL Rank (after) [8]: 247
P8_MAL Rank (before) [9]: 1291
Sequence: WFYERMVRLILRDTKV

P8_MAL Rank (after) [8]: 244
P8_MAL Rank (before) [9]: 2057
Sequence: LFFCESLKQLLRSDGH

P8_MAL Rank (after) [8]: 230
P8_MAL Rank (before) [9]: 2583
Sequence: TFLGHLYNALVQAGKL

P8_MAL Rank (after) [8]: 237
P8_MAL Rank (before) [9]: 1915
Sequence: AFLYLSDQSDPSDQF

P8_MAL Rank (after) [8]: 197
P8_MAL Rank (before) [9]: 779
Sequence: YFLHFLLFSLRKPSI

Population (P3_MAL pool: P3 T-Surf phage library): 0.00526%
Sequence: DQWRNALTAAANLSGW

Rank (after) [12]: 395
Rank (before) [13]: 2364
Sequence: RGFLSHLLLHLQAKDH

Rank (after) [2]: 178
Rank (before) [3]: 2104
Sequence: LFFWESLKQLLRSDG

P3_MAL Rank (after) [4]: 660
P3_MAL Rank (before) [5]: 3467
Sequence: KPSVSGPEKSWHFYL

Rank (after) [12]: 439
Rank (before) [13]: 1372
Sequence: YAFTGHLRRYLLRRSV

Rank (after) [12]: 161
Rank (before) [13]: 3383
Sequence: NQWRNALTAAANQSGL

P3_MAL Rank (after) [10]: 704
P3_MAL Rank (before) [11]: 1408
Sequence: YAFTGHLHRYLVQRRS

P8_MAL Rank (after) [8]: 268
P8_MAL Rank (before) [9]: 1461
Sequence: YFLHFLLFRRPENAYM

Rank (after) [12]: 96
Rank (before) [13]: 96
Sequence: FISHLYAALQRKHVET

P8_MAL Rank (after) [6]: 555
P8_MAL Rank (before) [7]: 1247
Sequence: WFYERLGSLMLRDTNV

P8_MAL Rank (after) [8]: 226
P8_MAL Rank (before) [9]: 2709
Sequence: KLFWEKFKFFRPSLSC

P8_MAL Rank (after) [8]: 221
P8_MAL Rank (before) [9]: 1149
Sequence: WFYELLVSLLLRDTKV

P3_MAL Rank (after) [4]: 604
P3_MAL Rank (before) [5]: 3390
Sequence: NQWRNALTATANLSGL

P8_MAL Rank (after) [6]: 531
P8_MAL Rank (before) [7]: 2114
Sequence: LFFWESLKKLLRSAGR

Population [1]: 0.00309%
Sequence: WFYERLVSLLLRDTKV

P3_MAL Rank (after) [10]: 693
P3_MAL Rank (before) [11]: 2082
Sequence: LGFLRHLRHHLQAKDH

Population [1]: 0.00463%
Sequence: TFLGHLYNALVQAGIP

Rank (after) [2]: 397
Rank (before) [3]: 2600
Sequence: TFLGHLYNTLVHAGTH

P3_MAL Rank (after) [8]: 225
P3_MAL Rank (before) [9]: 2932
Sequence: MERVKAFHQRLKTAPI
